Settings: Liquid; for viscosity: Capillary tube (Ostwald / Ubbelohde) method; for mass density: Vibrating tube method

CCCCC [pentane]
Settings | mass density [kg/m3] | viscosity [mPa·s]
293.21 K, 2000 kPa | 628.05 | 0.232
293.21 K, 3998 kPa | 630.31 | 0.2382
293.21 K, 6000 kPa | 632.63 | 0.2439
293.21 K, 8003 kPa | 634.89 | 0.2495
293.21 K, 13008 kPa | 640.02 | 0.2637
293.21 K, 30000 kPa | 655.38 | 0.31
293.22 K, 10008 kPa | 636.91 | 0.2551
293.22 K, 16007 kPa | 643 | 0.2719
293.22 K, 19009 kPa | 645.81 | 0.2806
293.22 K, 22010 kPa | 648.59 | 0.2885
293.22 K, 25002 kPa | 651.19 | 0.2967
293.22 K, 28002 kPa | 653.72 | 0.3046
313.1 K, 2005 kPa | 608.49 | 0.1968
313.1 K, 6001 kPa | 613.99 | 0.2075
313.1 K, 7999 kPa | 616.58 | 0.2126
313.1 K, 10005 kPa | 619.09 | 0.218
313.1 K, 13001 kPa | 622.65 | 0.2259
313.1 K, 16005 kPa | 626.03 | 0.2334
313.1 K, 19002 kPa | 629.28 | 0.2409
313.1 K, 22002 kPa | 632.38 | 0.2485
313.1 K, 25004 kPa | 635.4 | 0.2558
313.1 K, 28002 kPa | 638.2 | 0.2628
313.1 K, 30005 kPa | 640.09 | 0.2676
313.11 K, 4002 kPa | 611.31 | 0.2023
333.01 K, 2009 kPa | 587.87 | 0.1679
333.01 K, 3997 kPa | 591.4 | 0.1737
333.01 K, 6002 kPa | 594.59 | 0.1787
333.01 K, 8008 kPa | 597.69 | 0.1837
333.01 K, 10001 kPa | 600.61 | 0.1888
333.01 K, 12998 kPa | 604.82 | 0.1958
333.01 K, 15996 kPa | 608.78 | 0.2029
333.01 K, 19000 kPa | 612.5 | 0.21
333.01 K, 21997 kPa | 616.1 | 0.217
333.01 K, 25000 kPa | 619.39 | 0.2239
333.01 K, 27997 kPa | 622.68 | 0.2306
333.01 K, 30006 kPa | 624.71 | 0.2348
353.12 K, 2006 kPa | 565.77 | 0.1452
353.12 K, 3997 kPa | 570.01 | 0.1504
353.12 K, 6002 kPa | 574.02 | 0.1557
353.12 K, 8003 kPa | 577.79 | 0.1606
353.12 K, 10008 kPa | 581.28 | 0.1654
353.12 K, 13000 kPa | 586.31 | 0.1724
353.12 K, 16001 kPa | 590.9 | 0.1792
353.12 K, 18997 kPa | 595.21 | 0.1857
353.12 K, 25002 kPa | 603.1 | 0.1987
353.12 K, 28005 kPa | 606.77 | 0.2047
353.12 K, 30001 kPa | 609.1 | 0.2087
353.13 K, 22000 kPa | 599.29 | 0.1922

CCCCCCCCCC [decane]
Settings | mass density [kg/m3] | viscosity [mPa·s]
303.15 K, 2001 kPa | 724.01 | 0.8079
303.15 K, 3991 kPa | 725.58 | 0.8268
303.15 K, 6003 kPa | 727.19 | 0.8461
303.15 K, 8001 kPa | 728.75 | 0.8655
303.15 K, 9992 kPa | 730.27 | 0.885
303.15 K, 13006 kPa | 732.5 | 0.915
303.15 K, 16005 kPa | 734.69 | 0.9445
303.15 K, 18998 kPa | 736.88 | 0.9734
303.15 K, 21997 kPa | 739 | 1.004
303.15 K, 25008 kPa | 741.03 | 1.035
303.15 K, 27989 kPa | 743.02 | 1.066
303.15 K, 29988 kPa | 744.3 | 1.086
323.15 K, 1995 kPa | 708.76 | 0.6249
323.15 K, 4003 kPa | 710.68 | 0.6386
323.15 K, 5997 kPa | 712.57 | 0.6529
323.15 K, 8005 kPa | 714.3 | 0.6676
323.15 K, 10006 kPa | 715.96 | 0.6824
323.15 K, 12995 kPa | 718.36 | 0.7045
323.15 K, 15989 kPa | 720.73 | 0.7274
323.15 K, 18994 kPa | 723 | 0.7511
323.15 K, 21997 kPa | 725.28 | 0.774
323.15 K, 25006 kPa | 727.5 | 0.7981
323.15 K, 28004 kPa | 729.62 | 0.822
323.15 K, 30005 kPa | 731.03 | 0.8382
353.15 K, 5998 kPa | 689.96 | 0.4714
353.15 K, 7997 kPa | 691.97 | 0.4825
353.15 K, 22010 kPa | 704.95 | 0.5612
353.16 K, 2000 kPa | 685.65 | 0.448
353.16 K, 3999 kPa | 687.9 | 0.4596
353.16 K, 9991 kPa | 694.06 | 0.494
353.16 K, 13003 kPa | 697.01 | 0.5106
353.16 K, 15994 kPa | 699.86 | 0.5272
353.16 K, 19005 kPa | 702.43 | 0.5442
353.16 K, 25000 kPa | 707.44 | 0.5788
353.16 K, 27992 kPa | 710.01 | 0.5967
353.16 K, 29995 kPa | 711.67 | 0.6086

— the NIST ThermoML archive (doi:10.1021/acs.jced.7b00650)
